Where “and” joins values, the source holds several entries; their conditions need not be identical. Equal entries are not always repeated.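 Tested at 5 concentrations; 48 h exposure; 96-well plates; endpoints linearly interpolated, else capped at highest concentration. Here, GI50 denotes the concentration required for 50% inhibition of growth. Definition used: TGI = concentration required for complete inhibition of growth.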
Columns and labels:
Experiment in all cases: inhibition of tumour cell growth, NCI panel, 48 h
[1] = test system: SF-295 CNS
[2] = test system: NCI-H23 lung
[3] = test system: HCT-116 colon
[4] = test system: BT-549 breast
[5] = test system: HOP-92 NSCLC
[6] = test system: U251 CNS
[7] = test system: HS 578T breast
[8] = test system: RXF 393 renal
[9] = test system: IGROV1 ovarian
[10] = test system: T-47D breast

Compound | GI50 [1] | TGI [1] | GI50 [2] | TGI [2] | GI50 [3] | TGI [3] | GI50 [4] | TGI [4] | GI50 [5] | TGI [5] | GI50 [6] | TGI [6] | GI50 [7] | TGI [7] | GI50 [8] | TGI [8] | GI50 [9] | TGI [9] | GI50 [10] | TGI [10]
COc1ccc(-c2nn(-c3ccc(NC(=O)c4ccc(Cl)c(C(F)(F)F)c4)cc3)cc2-c2ccncc2)cc1Cl | 217 nM | 0.79 µM | 2150 nM | > 100 µM | 1050 nM | > 100 µM | 1160 nM | 96.9 µM | 1710 nM | 21.6 µM | 408 nM | 7.82 µM | 0.201 µM | 0.696 µM | 168 nM | 0.489 µM | 9.68 µM | > 100 µM | 3780 nM | > 100 µM
N=Nc1c(OC(=O)Nc2ccccc2)[nH]c2ccccc12 |  | 30.2 µM |  | 33.2 µM |  | 31.6 µM |  | 27.6 µM |  | 55.6 µM |  | 30.8 µM |  | > 100 µM |  | 28.7 µM |  | 42.2 µM |  | 37.7 µM
NC1=NC(c2ccc(Cl)cc2)N(c2ccc(S(=O)(=O)Nc3ncccn3)cc2)C(N)=N1 (centres undefined) |  | > 100 µM |  | > 100 µM |  | > 100 µM |  | > 100 µM |  | > 100 µM |  | > 100 µM |  | > 100 µM |  | > 100 µM |  | > 100 µM |  | > 100 µM
COc1ccc(C(C#N)NC23CC4CC(CC(C4)C2)C3)cc1OC (centres undefined) |  | > 100 µM |  | > 100 µM |  | > 100 µM |  | > 100 µM |  | > 100 µM |  | > 100 µM |  | > 100 µM |  | > 100 µM |  | > 100 µM |  | > 100 µM
COc1ccc2c(c1)[C@]1(C[C@H]1c1ccc3c(/C=C/c4ccc(CN5C[C@@H](C)O[C@@H](C)C5)cc4)n[nH]c3c1)C(=O)N2 | 1790 nM | > 100 µM | 2870 nM | 31.8 µM | 1770 nM | 12.1 µM | 1750 nM | 5.29 µM | 5340 nM | 39.1 µM | 5140 nM | 45.6 µM | 4.84 µM | 49.6 µM | 1850 nM | 4.4 µM | 9.69 µM | > 100 µM | 2680 nM | > 86.9 µM
CN1CCN(CCCOc2cccc3nc(Nc4ccc(Cl)c(F)c4)ccc23)CC1 | 1790 nM | 3.46 µM | 1750 nM | 3.43 µM | 1560 nM | 3.03 µM | 2400 nM | 7.73 µM | 1330 nM | 5.27 µM | 1810 nM | 3.28 µM | 2.12 µM | 5.77 µM | 1960 nM | 4.04 µM | 1.95 µM | 4.31 µM | 1780 nM | 4.02 µM
COc1cc2ccccc2c2cc([N+](=O)[O-])oc12 |  | 15.6 µM |  | 4.18 µM |  | 10.3 µM |  | 7.16 µM |  | 4.54 µM |  | 7.14 µM |  | 10.1 µM |  | 0.844 µM |  | 7.19 µM |  | > 45.6 µM
COc1cc(NS(C)(=O)=O)ccc1Nc1c2ccccc2nc2c(C)cccc12 | 39.9 nM and 87.4 nM | 0.386 µM and 3.46 µM | 134 nM and 191 nM | 2.88 µM and 11.4 µM | 133 nM and 160 nM | 2.13 µM and 2.37 µM | 412 nM and 394 nM | 4.62 µM and 2.86 µM | 49.5 nM and 104 nM | 1.1 µM and 2.27 µM | 106 nM and 96.3 nM | 1.15 µM and 0.868 µM | 0.652 µM and 0.406 µM | 12.8 µM and 6.53 µM | 258 nM and 326 nM | 1.72 µM and 3.36 µM | 0.541 µM and 0.438 µM | 24.1 µM and 19.9 µM | 111 nM and 109 nM | 4.05 µM and 5.71 µM
Cn1cc(C2=C(c3c4n(c5ccccc35)CCCC4)C(=O)NC2=O)c2ccccc21 | 7210 nM | > 25 µM | > 18200 nM | > 25 µM | 11400 nM | > 25 µM | > 18500 nM | > 25 µM | 8890 nM | > 25 µM | 13200 nM | > 25 µM | 5.13 µM | > 25 µM | 5860 nM | > 16.1 µM | > 8.23 µM | > 25 µM | > 15500 nM | > 25 µM
COc1cc(-c2nn(-c3ccc(NC(=O)Nc4ccc(Cl)c(Cl)c4)cc3)cc2-c2ccncc2)ccc1Cl | 1820 nM | 4.4 µM | 3260 nM | 32.3 µM | 3080 nM | 11 µM | 3350 nM | 11.2 µM | 2350 nM | 11.9 µM | 2840 nM | 15.1 µM | 3.22 µM | 11.9 µM | 2160 nM | 7.49 µM | 4.88 µM | > 100 µM | 3020 nM | 54.6 µM
CN(Cc1cnc(N)nc1N)c1ccc(C(=O)O)cc1 | > 100000 nM | > 100 µM | > 100000 nM | > 100 µM | > 100000 nM | > 100 µM | > 100000 nM | > 100 µM | > 100000 nM | > 100 µM | > 100000 nM | > 100 µM | > 100 µM | > 100 µM | > 100000 nM | > 100 µM | > 100 µM | > 100 µM | > 100000 nM | > 100 µM
COC1C(O)C(C)OC(OC2C(Oc3cccc4c(O)c5c(=O)oc6ccc(C)c7c(=O)oc(c34)c5c67)OC(C)C3O[C@H](c4ccccc4)OC32)C1O (some centres undefined) |  | 3.97 µM | 320 nM and 200 nM | 4.75 µM | 52.8 nM and 29.2 nM | 3.64 µM | 685 nM and 1500 nM | 6.27 µM | 82.3 nM | 7.21 µM |  | 10.9 µM |  | 17.9 µM |  | 5.91 µM |  | 3.42 µM | 483 nM | 
CC(=O)Nc1ccc(-c2c3nc(c(-c4cc5ccccc5[n+](C)c4)c4ccc([nH]4)c(-c4ccc(NC(C)=O)cc4)c4nc(c(-c5cc6ccccc6[n+](C)c5)c5ccc2[nH]5)C=C4)C=C3)cc1 | 6650 nM | 22.5 µM | 17300 nM | > 50 µM | 22000 nM | > 50 µM | 17000 nM | > 50 µM | 23900 nM | > 50 µM | 13500 nM | > 50 µM | 22.9 µM | > 50 µM | 2050 nM | 14.5 µM | 13.7 µM | > 50 µM | 8600 nM | 29.6 µM
CC1=CC[C@@H]2C(C)(C)C(=O)CC[C@@]2(C)[C@@H]1COc1ccc2ccc(=O)oc2c1 | 15500 nM | 44.3 µM | 15300 nM | 61.2 µM | 16400 nM | > 100 µM | 4370 nM | 22.5 µM | 27400 nM | > 100 µM | 27600 nM | > 100 µM | 40.5 µM | > 100 µM | 62000 nM | > 100 µM | 16.2 µM | 55.1 µM | 2690 nM | 11.1 µM

Reference: PubChem BioAssay (NCI)
